Source: the NIST ThermoML archive (doi:10.1021/je034261a)
Numbers after ± are expanded uncertainties.

What was measured:
[1] = for Glass transition temperature / Normal melting temperature: DTA; for mass density: 101.33 kPa, Liquid
[2] = molar heat capacity at constant pressure; settings: 101.33 kPa, Liquid, Small sample (50 mg) DSC

CCCCn1cc[n+](C)c1.[Cl-] [1-butyl-3-methylimidazolium chloride]
Settings	Glass transition temperature [°C]
[1]	-69.0 ± 3

[2]
Settings	molar heat capacity at constant pressure [J/K/mol]
298.15 K	322.7 ± 14
323.15 K	333.7 ± 14

CCn1cc[n+](C)c1.O=S(=O)([N-]S(=O)(=O)C(F)(F)F)C(F)(F)F
Settings	Normal melting temperature, Metastable crystal [°C]	mass density, 296.15 K [kg/m3]	mass density, 303.95 K [kg/m3]	mass density, 313.85 K [kg/m3]	mass density, 323.45 K [kg/m3]	mass density, 333.65 K [kg/m3]	molar heat capacity at constant pressure, 298.15 K [J/K/mol]	molar heat capacity at constant pressure, 323.15 K [J/K/mol]
[1]	-17.0 ± 2	1521.3 ± 2.7	1515.9 ± 2.8	1506.5 ± 2.9	1496.7 ± 3	1485.8 ± 3.1	–	–
[2]	–	–	–	–	–	–	524.3 ± 10	532.2 ± 11

Settings	Glass transition temperature [°C]
[1]	-92.0 ± 3

CCCCn1cc[n+](C)c1.F[B-](F)(F)F [1-butyl-3-methylimidazolium tetrafluoroborate]
Settings	mass density, 295.45 K [kg/m3]	mass density, 303.85 K [kg/m3]	mass density, 313.55 K [kg/m3]	mass density, 328.25 K [kg/m3]	mass density, 343.85 K [kg/m3]	molar heat capacity at constant pressure, 298.15 K [J/K/mol]	molar heat capacity at constant pressure, 323.15 K [J/K/mol]
[1]	1204.8 ± 2.3	1200.5 ± 2.4	1194 ± 2.5	1185 ± 2.6	1173.7 ± 2.7	–	–
[2]	–	–	–	–	–	351.5 ± 7	358 ± 7.2

Settings	Glass transition temperature [°C]
[1]	-85.0 ± 3

CCCCn1cc[n+](C)c1.[Br-] [1-butyl-3-methylimidazolium bromide]
Settings	Glass transition temperature [°C]
[1]	-50.0 ± 3

[2]
Settings	molar heat capacity at constant pressure [J/K/mol]
298.15 K	316.7 ± 13
323.15 K	323.6 ± 14

CCCCn1cc[n+](C)c1C.F[P-](F)(F)(F)(F)F [1-butyl-2,3-dimethylimidazolium hexafluorophosphate]
Settings	mass density, 295.65 K [kg/m3]	mass density, 313.15 K [kg/m3]	mass density, 323.15 K [kg/m3]	molar heat capacity at constant pressure, 298.15 K [J/K/mol]	molar heat capacity at constant pressure, 323.15 K [J/K/mol]
[1]	1241.6 ± 4	1219 ± 4	1205.5 ± 4	–	–
[2]	–	–	–	433.6 ± 8.7	449.1 ± 9

Settings	Glass transition temperature [°C]
[1]	-58.0 ± 3

CCC[n+]1ccn(C)c1C.O=S(=O)([N-]S(=O)(=O)C(F)(F)F)C(F)(F)F
Settings	mass density, 295.15 K [kg/m3]	mass density, 304.25 K [kg/m3]	mass density, 313.65 K [kg/m3]	mass density, 324.35 K [kg/m3]	mass density, 335.15 K [kg/m3]	mass density, 344.65 K [kg/m3]	molar heat capacity at constant pressure, 298.15 K [J/K/mol]	molar heat capacity at constant pressure, 323.15 K [J/K/mol]
[1]	1456.7 ± 6.1	1454.2 ± 6.4	1446.4 ± 6.7	1438.6 ± 7	1427.5 ± 7.4	1415.5 ± 7.7	–	–
[2]	–	–	–	–	–	–	554.5 ± 11	558.7 ± 11

Settings	Glass transition temperature [°C]
[1]	-82.0 ± 3

CCCCn1cc[n+](C)c1C.F[B-](F)(F)F [1-butyl-2,3-dimethylimidazolium tetrafluoroborate]
Settings	Normal melting temperature, Crystal [°C]	mass density, 300.15 K [kg/m3]	mass density, 313.15 K [kg/m3]	mass density, 323.15 K [kg/m3]	molar heat capacity at constant pressure, 330.15 K [J/K/mol]	molar heat capacity at constant pressure, 372.15 K [J/K/mol]
[1]	37.0 ± 1	1093.5 ± 3.5	1076.2 ± 3.5	1063.4 ± 3.5	–	–
[2]	–	–	–	–	375.3 ± 7.5	406.5 ± 8.1

Settings	Glass transition temperature [°C]
[1]	-68.0 ± 3

CCCC[n+]1ccn(C)c1.O=S(=O)([N-]S(=O)(=O)C(F)(F)F)C(F)(F)F
Settings	Normal melting temperature, Crystal [°C]	mass density, 296.45 K [kg/m3]	mass density, 304.15 K [kg/m3]	mass density, 313.45 K [kg/m3]	mass density, 323.35 K [kg/m3]	mass density, 333.75 K [kg/m3]	molar heat capacity at constant pressure, 298.15 K [J/K/mol]	molar heat capacity at constant pressure, 323.15 K [J/K/mol]
[1]	-2.0 ± 1	1438.6 ± 2.6	1433.6 ± 2.7	1424.7 ± 2.8	1414.2 ± 2.8	1405.4 ± 2.9	–	–
[2]	–	–	–	–	–	–	536.3 ± 11	543.9 ± 11

Settings	Glass transition temperature [°C]
[1]	-86.0 ± 3

CCCCn1cc[n+](C)c1.N#CN=C=[N-] [1-butyl-3-methylimidazolium dicyanamide]
Settings	Normal melting temperature, Crystal [°C]	mass density, 297.15 K [kg/m3]	mass density, 312.95 K [kg/m3]	mass density, 324.35 K [kg/m3]	mass density, 333.95 K [kg/m3]	mass density, 344.15 K [kg/m3]	mass density, 355.85 K [kg/m3]	molar heat capacity at constant pressure, 298.15 K [J/K/mol]	molar heat capacity at constant pressure, 323.15 K [J/K/mol]
[1]	-6.0 ± 1	1058 ± 4	1052.5 ± 4.3	1046.6 ± 4.4	1041.5 ± 4.6	1034 ± 4.8	1025.8 ± 5	–	–
[2]	–	–	–	–	–	–	–	364.6 ± 16	370 ± 16

Settings	Glass transition temperature [°C]
[1]	-90.0 ± 3

CCCCn1cc[n+](C)c1.O=S(=O)([O-])C(F)(F)F [1-butyl-3-methylimidazolium trifluoromethanesulfonate]
Settings	Normal melting temperature, Crystal [°C]	mass density, 295.75 K [kg/m3]	mass density, 303.95 K [kg/m3]	mass density, 313.35 K [kg/m3]	mass density, 328.75 K [kg/m3]	mass density, 342.95 K [kg/m3]	molar heat capacity at constant pressure, 298.15 K [J/K/mol]	molar heat capacity at constant pressure, 323.15 K [J/K/mol]
[1]	13.0 ± 1	1301.3 ± 4.1	1296.5 ± 4.1	1289.4 ± 4.1	1279 ± 4.2	1270 ± 4.2	–	–
[2]	–	–	–	–	–	–	417.2 ± 8.3	423.1 ± 8.5

CCn1cc[n+](C)c1C.O=S(=O)([N-]S(=O)(=O)C(F)(F)F)C(F)(F)F
Settings	Normal melting temperature, Crystal [°C]	mass density, 296.15 K [kg/m3]	mass density, 303.75 K [kg/m3]	mass density, 313.55 K [kg/m3]	mass density, 323.35 K [kg/m3]	mass density, 333.65 K [kg/m3]	molar heat capacity at constant pressure, 309.15 K [J/K/mol]	molar heat capacity at constant pressure, 323.15 K [J/K/mol]
[1]	25.0 ± 1	1491.3 ± 2.7	1485.5 ± 2.7	1476.9 ± 2.8	1468 ± 2.9	1457.2 ± 3	–	–
[2]	–	–	–	–	–	–	492.7 ± 9.9	498.8 ± 10

CCCCn1cc[n+](C)c1.F[P-](F)(F)(F)(F)F [1-butyl-3-methylimidazolium hexafluorophosphate]
Settings	Normal melting temperature, Crystal [°C]	molar heat capacity at constant pressure, 298.15 K [J/K/mol]	molar heat capacity at constant pressure, 323.15 K [J/K/mol]
[1]	11.0 ± 1	–	–
[2]	–	397.6 ± 8	405.1 ± 8.1

Settings	Glass transition temperature [°C]
[1]	-76.0 ± 3
